Measurements published in patent US7495104B2, “Quinoline or quinazoline derivatives inhibiting auto-phosphorylation of fibroblast growth factor receptors” (Kirin Beer Kabushiki Kaisha, priority 2001, dated 2009).

These compounds were tested against Bek (Homo sapiens, UniProt P21802) (assay: Inhibitory activity against Bek-autophosphorylation using ELISA method in OCUM-2MD3 cells). Conditions: 1 hr with compound, read-out: IC50 (concentration necessary for inhibiting 50% of Bek-phosphorylation).
Bek, sequence (P21802 431-767 limits assumed): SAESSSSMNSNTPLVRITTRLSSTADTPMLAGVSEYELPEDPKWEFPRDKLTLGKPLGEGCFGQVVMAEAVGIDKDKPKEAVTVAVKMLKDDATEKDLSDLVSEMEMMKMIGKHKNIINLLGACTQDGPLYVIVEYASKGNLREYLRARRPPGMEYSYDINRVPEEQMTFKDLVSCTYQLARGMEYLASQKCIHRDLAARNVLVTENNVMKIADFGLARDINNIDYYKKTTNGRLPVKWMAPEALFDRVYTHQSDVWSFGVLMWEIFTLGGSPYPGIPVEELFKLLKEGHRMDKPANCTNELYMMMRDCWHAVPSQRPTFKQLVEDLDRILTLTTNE
Type: cell-based
Method: Human scirrhus stomach cancer cells OCUM-2MD3 (kindly provided by Dr. Kosei Hirakawa, Osaka City University) were cultured in an RPMI medium containing 10% fetal calf serum (purchased from ICN) within a 5% carbon dioxide incubator until 50 to 90% confluent. The harvested cells were seeded onto 96-well flat-bottom plate in RPMI containing 0.1% fetal calf serum at 3.5×10^4 cells per well, followed by cultivation at 37° C. overnight. A solution of the test compound in dimethyl sulfoxide was added to each well, and the cultivation was continued at 37° C. for additional one hr. The medium was removed, and 50 μl of lysis buffer (20 mM HEPES (pH 7.4), 150 mM NaCl, 0.2% Triton X-100, 10% glycerol, 5 mM sodium orthovanadylate, 5 mM disodium ethylenediaminetetraacetate, and 2 mM Na4P2O7) was then added thereto. The mixture was shaken at 4° C. for 2 hr to prepare cell extracts.
Separately, phosphate buffered saline (50 μl, pH 7.4) containing 5 μg/ml of anti-phospho-tyrosine antibody (PY20; purchased from Transduction Laboratories) was added to a microplate for ELISA (Maxisorp; purchased from NUNC), followed by standing at 4° C. overnight to form a solid phase on the wells. After washing of the plate, 300 μl of a blocking solution was added, followed by standing at room temperature for 2 hr to perform blocking. After washing, the whole quantity of the cell extracts was transferred to the wells, and the plate was then allowed to stand at 4° C. overnight. After washing, an anti-Bek antibody (Bek (C-17), purchased from Santa Cruz Biotechnology) or Anti-Human K-sam Rabbit IgG Affinity Purity (purchased from IBL Co., Ltd.) was allowed to react at room temperature for one hr, and, after washing, a peroxidase-labeled anti-rabbit Ig antibody (purchased from Amersham) was allowed to react at room temperature for one hr. After washing, a chromophoric substrate for peroxidase (purchased from Sumitomo Bakelite Co., Ltd.) was added thereto to initiate a reaction. After a suitable level of color development, a reaction termination solution was added to stop the reaction, and the absorbance at 450 nm was measured with a microplate reader. The Bek-phosphorylation activity for each well was determined by presuming the absorbance without the addition of the medicament to be 100% Bek-phosphorylation activity and the absorbance with the addition of a large excess of a positive control (N-{4-[(6,7-dimethoxy-4-quinolyl)oxy]phenyl}-N′-(3,3-dimethylbutyl)urea, 1000 nM) to be 0% Bek-phosphorylation activity. The concentration of the test compound was varied on several levels, the Bek-phosphorylation inhibitory activity was determined for each case, and the concentration of the test compound necessary for inhibiting 50% of Bek-phosphorylation (IC50) was calculated.

Compared with `COc1cc2nccc(Oc3ccc(Oc4ccc(C(C)(C)C)cc4)cc3)c2cc1OC` [Compound 30, 4-[4-(4-Tert-butylphenoxy)phenoxy]-6,7-dimethoxyquinoline], `COc1cc2nccc(Oc3ccc(Cc4ccc(C(C)(C)C)cc4)cc3)c2cc1OC` [Compound 32, 4-[4-(4-Tert-butylbenzyl)phenoxy]-6,7-dimethoxyquinoline] is 4.7-fold lower in IC50: 3260 nM for the first, 693 nM for the second. The second is the more potent here.

`COc1cc2nccc(Oc3ccc(C(OC(C)=O)c4ccc(C(C)(C)C)cc4)cc3)c2cc1OC` (stereo not drawn) [Compound 31, (4-Tert-butylphenyl)-[4-(6,7-dimethoxyquinolin-4-yloxy)phenyl]methyl acetate] and `COc1cc2c(Oc3ccc(Nc4ccc(C(C)(C)C)cc4)cc3)ccnc2cc1OCCN(C)C` [Compound 40, N1-[4-(Tert-butyl)phenyl]-4-({7-[2-(dimethylamino)ethoxy]-6-methoxy-4-quinolyl}oxy)aniline] are within 1.5-fold of each other in IC50: 1010 nM for the first, 924 nM for the second.

`COc1cc2c(Oc3ccc(Nc4ccc(C(C)(C)C)cc4)cc3)ccnc2cc1OCCN1CCN(C)CC1` [Compound 33, (4-Tert-butylphenyl)-(4-{6-methoxy-7-[2-(4-methylpiperazin-1-yl)ethoxy]quinolin-4-yloxy}phenyl)amine] and `COc1cc2c(Oc3ccc(Nc4ccc(C(C)(C)C)cc4)cc3)ccnc2cc1OCCCN1CCN(C)CC1` [Compound 35, (4-Tert-butylphenyl)-(4-{6-methoxy-7-[3-(4-methylpiperazin-1-yl)propoxy]quinolin-4-yloxy}phenyl)amine] are within 1.5-fold of each other in IC50: 155 nM for the first, 220 nM for the second.

`COc1cc2c(Oc3ccc(Nc4ccc(C(C)(C)C)cc4)cc3)ccnc2cc1OCCCN1CCCCC1` [Compound 34, (4-Tert-butylphenyl)-{4-[6-methoxy-7-(3-piperidin-1-ylpropoxy)-quinolin-4-yloxy]phenyl}amine] and `COc1cc2c(Oc3ccc(Nc4ccc(C(C)(C)C)cc4)cc3)ccnc2cc1OCCCN1CCCCCC1` [Compound 54, {4-[7-(3-Azepan-1-ylpropoxy)-6-methoxyquinolin-4-yloxyl]-phenyl}-(4-tert-butylphenyl)amine] are within 1.5-fold of each other in IC50: 219 nM for the first, 324 nM for the second.

First: COc1cc2c(Oc3ccc(Nc4ccc(C(C)(C)C)cc4)cc3)ccnc2cc1OCCCCN1CCCCC1 [Compound 36, (4-Tert-butylphenyl)-{4-[6-methoxy-7-(4-piperidin-1-ylbutoxy)-quinolin-4-yloxy]phenyl}amine]
Second: COc1cc2c(Oc3ccc(Nc4ccc(C(C)(C)C)cc4)cc3)ccnc2cc1OCCCN1CCCC1 [Compound 53, (4-Tert-butylphenyl)-{4-[6-methoxy-7-(3-pyrrolidin-1-ylpropoxy)-quinolin-4-yloxy]phenyl}amine]
The IC50 of the first is 6.5-fold higher: 247 nM for the first, 38 nM for the second.

Compared with `COc1cc2c(Oc3ccc(Nc4ccc(C(C)(C)C)cc4)cc3)ccnc2cc1OCCN1CCOCC1` [Compound 37, (4-Tert-butylphenyl)-{4-[6-methoxy-7-(2-morpholin-4-ylethoxy)quinolin-4-yloxy]phenyl}amine], `COc1cc2c(Oc3ccc(Nc4ccc(C(C)(C)C)cc4)cc3)ccnc2cc1OCCN1CCCC1` [Compound 39, (4-Tert-butylphenyl)-{4-[6-methoxy-7-(2-pyrrolidin-1-ylethoxy)-quinolin-4-yloxy]phenyl}amine] is 1.7-fold higher in IC50: 345 nM for the first, 570 nM for the second. The first is the more potent here.

Compared with `COc1cc2c(Oc3ccc(Nc4ccc(C(C)(C)C)cc4)cc3)ccnc2cc1OCCN1CCCCC1` [Compound 38, (4-Tert-butylphenyl)-{4-[6-methoxy-7-(2-piperidin-1-ylethoxy)-quinolin-4-yloxy]phenyl}amine], `COc1cc2c(Oc3ccc(Nc4ccc(C(C)(C)C)cc4)cc3)ccnc2cc1OCCN1CCCCCC1` [Compound 50, {4-[7-(2-Azepan-1-ylethoxy)-6-methoxyquinolin-4-yloxy]phenyl}-(4-tert-butylphenyl)amine] is 13-fold lower in IC50: 463 nM for the first, 35 nM for the second.

Compared with `CCN(CC)CCOc1cc2nccc(Oc3ccc(Nc4ccc(C(C)(C)C)cc4)cc3)c2cc1OC` [Compound 41, N1-[4-(Tert-butyl)phenyl]-4-({7-[2-(diethylamino)ethoxy]-6-methoxy-4-quinolyl}oxy)aniline], `CCN(CC)CCCOc1cc2nccc(Oc3ccc(Nc4ccc(C(C)(C)C)cc4)cc3)c2cc1OC` [Compound 47, N1-[4-(Tert-butyl)phenyl]-4-({7-[3-(diethylamino)propoxy]-6-methoxy-4-quinolyl}oxy)aniline] is 2-fold lower in IC50: 480 nM for the first, 243 nM for the second. The second is the more potent here.

`CCCN1CCC(COc2cc3nccc(Oc4ccc(Nc5ccc(C(C)(C)C)cc5)cc4)c3cc2OC)CC1` [Compound 42, (4-Tert-butylphenyl)-{4-[6-methoxy-7-(1-propylpiperidin-4-ylmethoxy)quinolin-4-yloxy]phenyl}amine] and `COc1cc2c(Oc3ccc(Nc4ccc(C(C)(C)C)cc4)cc3)ccnc2cc1OCC1CCCN(C)C1` (stereo not drawn) [Compound 56, (4-Tert-butylphenyl)-{4-[6-methoxy-7-(1-methylpiperidin-3-ylmethoxy)quinolin-4-yloxy]phenyl}amine] are within 1.5-fold of each other in IC50: 399 nM for the first, 405 nM for the second.

Compared with `COc1ccc(Nc2ccc(Oc3ccnc4cc(OC)c(OC)cc34)cc2)cc1OC` [Compound 43, (3,4-Dimethoxyphenyl)-[4-(6,7-dimethoxyquinolin-4-yloxy)-phenyl]amine], `COc1cc2nccc(Oc3ccc(Nc4ccc(N5CCOCC5)cc4)cc3)c2cc1OC` [Compound 44, [4-(6,7-Dimethoxyquinolin-4-yloxy)phenyl]-(4-morpholin-4-ylphenyl)amine] is 44-fold lower in IC50: 3340 nM for the first, 76.5 nM for the second.

First: COc1cc2c(Oc3ccc(Nc4ccc(C(C)(C)C)cc4)cc3)ccnc2cc1OCCN1CCCN(C)CC1 [Compound 45, (4-Tert-butylphenyl)-(4-{6-methoxy-7-[2-(4-methyl-[1,4]diazepin-1-yl)ethoxy]quinolin-4-yloxy}phenyl)amine]
Second: COc1cc2c(Oc3ccc(Nc4ccc(C(C)(C)C)cc4)cc3)ccnc2cc1OCC1CCCN1C (stereo not drawn) [Compound 58, (4-Tert-butylphenyl)-{4-[6-methoxy-7-(1-methylpyrrolidin-2-ylmethoxy)quinolin-4-yloxy]phenyl}amine]
The IC50 of the first is 5-fold lower: 240 nM for the first, 1200 nM for the second.

Going from `COc1cc2c(Oc3ccc(Nc4ccc(C(C)(C)C)cc4)cc3)ccnc2cc1OCCCN(C)C` [Compound 46, N1-[4-(Tert-butyl)phenyl]-4-({7-[3-(dimethylamino)propoxy]-6-methoxy-4-quinolyl}oxy)aniline] to `COc1cc2c(Oc3ccc(Nc4ccc(C(C)(C)C)cc4)cc3)ccnc2cc1OCCCN(C)CCO` [Compound 52, 2-[(3-{4-[4-(4-Tert-butylphenylamino)phenoxy]-6-methoxy-quinolin-7-yloxy}propyl)methylamino]ethanol], the IC50 falls from 230 nM to 33 nM (7-fold). The second is the more potent here.

`COc1cc2c(Oc3ccc(Nc4ccc(C(C)(C)C)cc4)cc3)ccnc2cc1OCCN(CCO)CCO` [Compound 48, 2-[(2-{4-[4-(4-Tert-butyl-phenylamino)phenoxy]-6-methoxy-quinolin-7-yloxy}ethyl)-(2-hydroxyethyl)amino]ethanol] and `COc1cc2c(Oc3ccc(Nc4ccc(C(C)(C)C)cc4)cc3)ccnc2cc1OCCCN(CCO)CCO` [Compound 51, 2-[(3-{4-[4-(4-Tert-butylphenylamino)phenoxy]-6-methoxy-quinolin-7-yloxy}propyl)-(2-hydroxyethyl)amino]ethanol] are within 1.5-fold of each other in IC50: 33.5 nM for the first, 30.6 nM for the second.

Compared with `COc1cc2c(Oc3ccc(Nc4ccc(C(C)(C)C)cc4)cc3)ccnc2cc1OCCN(C)CCO` [Compound 49, 2-[(2-{4-[4-(4-Tert-butyl-phenylamino)phenoxy]-6-methoxy-quinolin-7-yloxy}ethyl)methylamino]ethanol], `CCN(CC)CC(O)COc1cc2nccc(Oc3ccc(Nc4ccc(C(C)(C)C)cc4)cc3)c2cc1OC` (stereo not drawn) [Compound 60, 1-{4-[4-(4-Tert-butyl-phenylamino)phenoxy]-6-methoxyquinolin-7-yloxy}-3-diethylaminopropan-2-ol] is 6-fold higher in IC50: 33.9 nM for the first, 203 nM for the second. The first is the more potent here.

Going from `COc1cc2c(Oc3ccc(Nc4ccc(C(C)(C)C)cc4)cc3)ccnc2cc1OCC1CCCCN1C` (stereo not drawn) [Compound 55, (4-Tert-butylphenyl)-{4-[6-methoxy-7-(1-methylpiperidin-2-ylmethoxy)quinolin-4-yloxy]phenyl}amine] to `COc1cc2c(Oc3ccc(Nc4ccc(C(C)(C)C)cc4)cc3)ccnc2cc1OCC(O)CN1CCOCC1` (stereo not drawn) [Compound 59, 1-{4-[4-(4-Tert-butyl-phenylamino)phenoxy]-6-methoxyquinolin-7-yloxy}-3-morpholin-4-ylpropan-2-ol], the IC50 falls from 8000 nM to 143 nM (56-fold). The second is the more potent here.
